From US11648254B2 (Kumquat Biosciences Inc., priority 2021, dated 2023) come the findings set out here.

Structures are written as SMILES. Like-named read-outs stand apart in the source and are kept apart here.

Series [1] can be described thus: In vitro plasma protein binding (PPB). It is filed as in vitro ADME. The following applies: percentage of free/unbound compound.
Series [2] relates to MIA PaCa-2 cells (K-Ras G12C). Description: Ras-SOS cellular growth inhibition assay (CellTiter-Glo, 3D). The following applies: Homo sapiens. The format is cell-based. Summed up:
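MIA PaCa-2 cells grown in ultra-low-attachment plates (3D) in DMEM/Ham's F12 with 10% FCS and 2.5% horse serum, treated the day after seeding with a 9-point 3-fold compound series for about 5 days. Viability by CellTiter-Glo luminescence; IC50 from four-parameter fit.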

For another series, the target named is SOS1 (Homo sapiens (Human), UniProt Q07889). As to the kind of experiment: Ras-SOS interaction assay (HTRF). It is filed as biochemical.
Chain of SOS1 (Q07889 564-1049): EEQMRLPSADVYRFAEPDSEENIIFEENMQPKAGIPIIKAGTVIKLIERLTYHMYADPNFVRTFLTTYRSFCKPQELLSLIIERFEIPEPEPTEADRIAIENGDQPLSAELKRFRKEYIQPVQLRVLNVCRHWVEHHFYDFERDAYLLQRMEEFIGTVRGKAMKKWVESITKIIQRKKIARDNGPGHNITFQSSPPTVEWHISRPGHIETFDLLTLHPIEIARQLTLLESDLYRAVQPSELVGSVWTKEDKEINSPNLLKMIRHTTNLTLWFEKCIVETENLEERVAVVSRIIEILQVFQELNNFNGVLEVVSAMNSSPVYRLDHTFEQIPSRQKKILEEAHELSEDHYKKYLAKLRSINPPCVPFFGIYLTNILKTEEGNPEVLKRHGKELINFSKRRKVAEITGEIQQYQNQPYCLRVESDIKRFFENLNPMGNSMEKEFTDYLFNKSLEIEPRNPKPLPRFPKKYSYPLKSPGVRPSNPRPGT
Series [3] concerns NCI-H1975 cells (EGFR T790M L858R). Description: EGFR-SOS cellular inhibition assay (CellTiter-Glo, 3D). It is filed as cell-based. The conditions noted are these: Homo sapiens.
The nature of series [4]: Metabolic (microsomal) stability assay. The format is in vitro ADME. The following applies: mouse liver microsomes, T1/2; read-out: DMPK-invitro-metabolic Stability (Mouse T1/2). The source says:
Example 12: Metabolic (Microsomal) Stability Assay

The mark [5] stands for this setting: MIA PaCa-2, 120 h, MIA PaCa-2, 3D proliferation, about 5 days, read-out: Bio-Cell-Prolif-3D (MiaPaca2 IC50).
Setting [6] is: MIA PaCa-2, MIA PaCa-2, read-out: IC50 in inhibiting MIA PaCa-2 cell growth.
The mark [7] stands for this setting: K-RasG13D utilized, read-out: IC50 inhibition of SOS.
Where [8] appears, read: K-RasG13D, read-out: IC50 value against SOS1.
[9] abbreviates: 120 h, NCI-H1975, 3D proliferation, about 5 days, read-out: Bio-Cell-Prolif-3D (H1975 IC50).
The mark [10] stands for this setting: NCI-H1975, EGFR T790M L858R, read-out: IC50 in inhibiting growth of NCI-H1975 cell line.

As for `COc1nc2nc(C)nc(N[C@H](C)c3cccc(C(F)(F)C(C)(C)O)c3)c2cc1C1(C#N)CC1` [Compound 175, (R)-1-(4-((1-(3-(1,1-difluoro-2-hydroxy-2-methylpropyl)phenyl)ethyl)amino)-7-methoxy-2-methylpyrido[2,3-d]pyrimidin-6-yl)cyclopropane-1-carbonitrile], the “DMPK-invitro-PPB (Mouse Unbound) [%]” value in series [1] stood at 0.11%. Besides, the IC50 in series [2] (setting [5]) was not above 1000 nM; in series [2] (setting [6]), less than 500 nM; on SOS1 (setting [7]) it was less than 100 nM; at SOS1 (setting [8]), less than 50 nM; in series [3] (setting [9]), not above 1000 nM; in series [3] (setting [10]), less than 500 nM. In addition, in series [4], the half-life was determined as 3.31 h.
With `COc1nc2nc(C)nc(N[C@H](C)c3cccc(C(F)(F)C(C)(C)O)c3F)c2cc1C1(C#N)CC1` [Compound 207, (R)-1-(4-((1-(3-(1,1-difluoro-2-hydroxy-2-methylpropyl)-2-fluorophenyl)ethyl)amino)-7-methoxy-2-methylpyrido[2,3-d]pyrimidin-6-yl)cyclopropane-1-carbonitrile], the “DMPK-invitro-PPB (Mouse Unbound) [%]” value in series [1] is given as 0.06%. In addition, the IC50 was not above 1000 nM in series [2] (setting [5]); less than 100 nM on SOS1 (setting [7]); less than 50 nM at SOS1 (setting [8]); not above 1000 nM in series [3] (setting [9]); less than 500 nM in series [3] (setting [10]). The half-life in series [4] is more than 3.33 h.
Take `Cc1nc(N[C@H](C)c2cccc(C(F)F)c2F)c2cc(C3(C#N)CC3)c(OC3COC3)nc2n1` [Compound 402, (R)-1-(4-((1-(3-(difluoromethyl)-2-fluorophenyl)ethyl)amino)-2-methyl-7-(oxetan-3-yloxy)pyrido[2,3-d]pyrimidin-6-yl)cyclopropane-1-carbonitrile]: the IC50 was not above 1000 nM in series [2] (setting [5]), less than 500 nM in series [2] (setting [6]), less than 100 nM on SOS1 (setting [7]) and not above 1000 nM in series [3] (setting [9]). In addition, the half-life in series [4] was found to be 0.322 h.
`C[C@@H](Nc1ncnc2nc(OC3CN(C)C3)c(C3(C#N)CC3)cc12)c1cccc(C(F)F)c1F` [Compound 405, (R)-1-(4-((1-(3-(difluoromethyl)-2-fluorophenyl)ethyl)amino)-7-((1-methylazetidin-3-yl)oxy)pyrido[2,3-d]pyrimidin-6-yl)cyclopropane-1-carbonitrile]: the IC50 in series [2] (setting [5]) is not above 1000 nM; at SOS1 (setting [7]), less than 100 nM; at SOS1 (setting [8]), less than 50 nM; in series [3] (setting [9]) it was not above 1000 nM; in series [3] (setting [10]) it was less than 500 nM. Moreover, in series [4], the half-life was more than 3.33 h.
Consider `C[C@@H](Nc1ncnc2nc(O[C@@H]3CCOC3)c(C3(C#N)CC3)cc12)c1cccc(C(F)F)c1F` [Compound 409, 1-(4-(((R)-1-(3-(difluoromethyl)-2-fluorophenyl)ethyl)amino)-7-(((R)-tetrahydrofuran-3-yl)oxy)pyrido[2,3-d]pyrimidin-6-yl)cyclopropane-1-carbonitrile], for which the 50% inhibitory concentration (IC50) was not above 1000 nM in series [2] (setting [5]), 100 to 1000 nM at SOS1 (setting [7]), not above 1000 nM in series [3] (setting [9]) and less than 500 nM in series [3] (setting [10]). In series [4], the half-life stood at 0.0933 h.
Regarding `C[C@H](O)C(F)(F)c1cccc([C@@H](C)Nc2ncnc3nc(Cl)c(C4(C#N)CC4)cc23)c1F` [Compound 417, 1-(7-chloro-4-(((R)-1-(3-((S)-1,1-difluoro-2-hydroxypropyl)-2-fluorophenyl)ethyl)amino)pyrido[2,3-d]pyrimidin-6-yl)cyclopropane-1-carbonitrile], the IC50 in series [2] (setting [5]) was not above 1000 nM; on SOS1 (setting [7]) it was less than 100 nM; at SOS1 (setting [8]), less than 50 nM; in series [3] (setting [9]), not above 1000 nM; in series [3] (setting [10]) it was less than 500 nM. For the same compound, in series [4], the half-life was more than 3.33 h.

In general, IC50 refers to the concentration that gives 50% inhibition.
